Patent US8367340B2, “Prognostic tools to predict the efficacy of drug treatment targeting chromatin DNA or enzymes acting on DNA” (University of Maryland, Baltimore, priority 2008, dated 2013)

Test system: c-myc P2 promoter
Test: PCR-Stop assay with real time PCR on genomic DNA of drug-treated RKO colon cancer cells
Format: cell-based, human
Details: 10 ng/ml TSA 4 h followed by 25 μM VP16 1 h, compared to the reverse combination and the single drug treatments
Excerpt: Top2 inhibitors induce preferential damage within the c-myc locus and more particularly within the P2 promoter of c-myc. […] By way of non-limiting example, the 3′ end region may be amplified using the following primers of the human c-myc gene: Forward: 5′[…]3′ [SEQ ID NO: 1], Reverse: 5′[…]3′ [SEQ ID NO:2]. Other suitable primers may be used, as would be apparent to those skilled in the art.
According to example embodiments, a comparative threshold (Ct) method may be used to quantify the results obtained by the real-time RT-PCR. The comparative Ct method involves comparing the Ct values of the samples of interest with a control or calibrator such as a non-treated sample from normal tissue. The Ct values of both the calibrator and the samples of interest are normalized to an appropriate endogenous housekeeping gene. Non-limiting example quantification methods include identifying the cycle number at which the reporter dye emission intensities rises above background noise: this cycle number is called the threshold number (Ct). The Ct is proportional to the breaks introduced in the target template; the higher the amount of breakage in the given target template, the higher the Ct measured.
By way of non-limiting example, the 3′ region of c-myc gene that has no type II topoisomerase cleavage site may be used as a reference. […]

COc1cc([C@@H]2c3cc4c(cc3[C@@H](O[C@@H]3O[C@@H]5CO[C@@H](C)O[C@H]5[C@H](O)[C@H]3O)[C@H]3COC(=O)[C@H]23)OCO4)cc(OC)c1O [VP16, etoposide]
percentage of breaks at c-myc locus (type II topoisomerase mediated DNA breaks in c-myc P2 promoter): considerably higher percentage of breaks
